Experimental data reported in paper PMC12118597 (Science Advances, 2025).
Values joined by “and” are separate entries in the source; they are usually repeats but may differ in a detail not shown here. Identical values can stand only once. Like-named read-outs stand apart in the source and are kept apart here.

Legend:
[1] = target: T1, SARS-CoV-2 NSP3 macrodomain (Mac1) (Severe acute respiratory syndrome coronavirus 2, UniProt P0DTD1); assay type: binding; settings: for 1-BDC: PanDDA background density correction factor; for PanDDA run, overall: Hit / PanDDA run, DMSO background map: 1-BDC / PanDDA run, DMSO background map: Hit / PanDDA run, TFA/DMSO background map: 1-BDC / PanDDA run, TFA/DMSO background map: Hit: crystal soak 10 mM; for PanDDA run, overall: Hit: P43 crystal form; for Total number of conformations: ligand conformations modeled in the crystal structure; for Number of isomers bound: ligand modeling, Mac1 crystal soak; for 2*(1-BDC) (%): occupancy estimate from PanDDA; for Refined ligand occupancy (%): refined crystallographic occupancy; for Isomers modeled: stereoisomer(s) modeled as bound, residues 201/202/203
[2] = target: T1, SARS-CoV-2 NSP3 macrodomain (Mac1); assay: biochemical; assay type: binding
[3] = HTRF binding curve, SARS-CoV-2 Mac1
[4] = SARS CoV-2 macrodomain HTRF assay
[5] = SARS CoV-2 macrodomain HTRF assay, dose-response
[6] = SARS CoV-2 macrodomain HTRF assay, single dose concentration 200 μM, read-out: Average % competition
[7] = compound at 200 μM, mean of three to four technical replicates, read-out: % competition at 200 μM (preliminary HTRF screen)
[8] = SARS CoV-2 macrodomain HTRF assay, dose-response, read-out: IC50
[9] = Single dose, concentration 200 μM

CC(C)(O)[C@@H]1CCCN1c1ncnc2[nH]ccc12 [AVI-1445, (S)-2-(1-(7H-pyrrolo[2,3-d]pyrimidin-4-yl)pyrrolidin-2-yl)propan-2-ol]
Occupancy difference (refined_occupancy - 2*(1-BDC)) [1]: 0 | 1-BDC [1]: 0.12 | PanDDA run, overall: Hit [1]: TRUE | PanDDA run, DMSO background map: 1-BDC [1]: 0.12 | PanDDA run, DMSO background map: Hit [1]: TRUE | PanDDA run, TFA/DMSO background map: 1-BDC [1]: 0.12 | PanDDA run, TFA/DMSO background map: Hit [1]: TRUE | Total number of conformations [1]: 1 | Number of isomers bound [1]: 1 | X-ray crystal structure ([1]; ligand-bound crystal structure obtained (TRUE)): TRUE | 2*(1-BDC) (%) [1]: 24% | Refined ligand occupancy (%) [1]: 24% | Binding site ([1]; site occupied in X-ray crystal structure): Adenosine | Hill slope [2, 3]: 1.1 | Ki [2, 4]: 100 µM | Ligand efficiency (binding enery per heavy atom) [2, 4]: 0.31 | Hill slope [2, 5]: 1.6 | inhibition at 200 µM [2, 6]: 75% | inhibition at 200 µM [2, 7]: 75% | IC50 ([2]; read-out: IC50 (confirmatory HTRF dose-response screen)): 110 µM

Cc1c[nH]c2ncnc(NCC3(O)CCC3)c12 [AVI-3571, 1-(((5-methyl-7H-pyrrolo[2,3-d]pyrimidin-4-yl)amino)methyl)cyclobutan-1-ol]
Occupancy difference (refined_occupancy - 2*(1-BDC)) [1]: 0 | 1-BDC [1]: 0.15 | X-ray crystal structure ([1]; TRUE = crystal structure with ligand obtained): TRUE | PanDDA run, overall: Hit [1]: TRUE | PanDDA run, DMSO background map: 1-BDC [1]: 0.15 and 0.2 | PanDDA run, DMSO background map: Hit [1]: TRUE | Total number of conformations [1]: 2 | Number of isomers bound [1]: 1 | 2*(1-BDC) (%) [1]: 30% | Refined ligand occupancy (%) [1]: 30% | Binding site ([1]; site of ligand in X-ray crystal structure): Adenosine | Hill slope [2, 3]: 1.0 | Ki [2, 4]: 14 µM | Ligand efficiency (binding enery per heavy atom) [2, 4]: 0.39 | Hill slope [2, 5]: 1.0 | IC50 [2, 8]: 15 µM

CCC(Nc1ncnc2[nH]ccc12)C(C)O (stereo not drawn) [AVI-3635]
PanDDA run, TFA/DMSO background map: 1-BDC [1]: 0.11 and 0.08 | PanDDA run, TFA/DMSO background map: Hit [1]: TRUE | Number of isomers bound [1]: 1 | Average % competition [2, 9]: 54% | inhibition at 200 µM [2, 7]: 54%

OCC(CC(F)(F)F)Nc1ncnc2[nH]ccc12 (stereo not drawn) [AVI-3637]
PanDDA run, TFA/DMSO background map: 1-BDC [1]: 0.21 | PanDDA run, TFA/DMSO background map: Hit [1]: TRUE | Number of isomers bound [1]: 1 | Average % competition [2, 9]: 50% | inhibition at 200 µM [2, 7]: 50%

OCC(Nc1ncnc2[nH]ccc12)C1CCC1 (stereo not drawn) [AVI-3638]
PanDDA run, TFA/DMSO background map: 1-BDC [1]: 0.1 | PanDDA run, TFA/DMSO background map: Hit [1]: TRUE | Number of isomers bound [1]: 1 | Average % competition [2, 9]: 77% | inhibition at 200 µM [2, 7]: 77%

O=C(O)C(F)(F)F.O[C@H]1CCC[C@@H]1Nc1ncnc2[nH]ccc12 [AVI-3639]
PanDDA run, TFA/DMSO background map: 1-BDC [1]: 0.09 | PanDDA run, TFA/DMSO background map: Hit [1]: TRUE | Number of isomers bound [1]: 1 | Average % competition [2, 9]: 74% | inhibition at 200 µM [2, 7]: 74%

OCC(CC1CCC1)Nc1ncnc2[nH]ccc12 (stereo not drawn) [AVI-3641]
PanDDA run, TFA/DMSO background map: 1-BDC [1]: 0.11 | PanDDA run, TFA/DMSO background map: Hit [1]: TRUE | Number of isomers bound [1]: 1 | Average % competition [2, 9]: 32% | inhibition at 200 µM [2, 7]: 32%

OCC(CC(O)c1ccccc1)Nc1ncnc2[nH]ccc12 (stereo not drawn) [AVI-3642]
PanDDA run, TFA/DMSO background map: 1-BDC [1]: 0.17 | PanDDA run, TFA/DMSO background map: Hit [1]: TRUE | Number of isomers bound [1]: 1 | Average % competition [2, 9]: <10% | inhibition at 200 µM [2, 7]: < 10%

CCCC(CO)Nc1ncnc2[nH]ccc12 (stereo not drawn) [AVI-3643]
PanDDA run, TFA/DMSO background map: 1-BDC [1]: 0.14 | PanDDA run, TFA/DMSO background map: Hit [1]: TRUE | Number of isomers bound [1]: 1 | inhibition at 200 µM ([2]; Single dose, concentration 200 μM, read-out: Average % competition): 63% | inhibition at 200 µM [2, 7]: 63%

C#CCC(CO)Nc1ncnc2[nH]ccc12 (stereo not drawn) [AVI-3644]
PanDDA run, TFA/DMSO background map: 1-BDC [1]: 0.11 | PanDDA run, TFA/DMSO background map: Hit [1]: TRUE | Number of isomers bound [1]: 1 | Average % competition [2, 9]: 43% | inhibition at 200 µM [2, 7]: 43%

OC1CCCN(c2ncnc3[nH]ccc23)C1 (stereo not drawn) [AVI-3646]
PanDDA run, TFA/DMSO background map: 1-BDC [1]: 0.13 | PanDDA run, TFA/DMSO background map: Hit [1]: TRUE | Number of isomers bound [1]: 1 | Average % competition ([2]; SARS CoV-2 macrodomain HTRF assay, single dose concentration 200 μM): 20% | inhibition at 200 µM [2, 7]: 20%

CC(C)(C)CC(CO)Nc1ncnc2[nH]ccc12 (stereo not drawn) [AVI-3648]
PanDDA run, TFA/DMSO background map: 1-BDC [1]: 0.16 | PanDDA run, TFA/DMSO background map: Hit [1]: TRUE | Number of isomers bound [1]: 1 | Average % competition [2, 9]: 27% | inhibition at 200 µM [2, 7]: 27%

OCC(Nc1ncnc2[nH]ccc12)C1CCCC1 (stereo not drawn) [AVI-3649]
PanDDA run, TFA/DMSO background map: 1-BDC [1]: 0.11 | PanDDA run, TFA/DMSO background map: Hit [1]: TRUE | Number of isomers bound [1]: 1 | Average % competition [2, 9]: 68% | inhibition at 200 µM [2, 7]: 68%

OCC(Cc1c[nH]c2ccccc12)Nc1ncnc2[nH]ccc12 (stereo not drawn) [AVI-3650]
PanDDA run, TFA/DMSO background map: 1-BDC [1]: 0.11 | PanDDA run, TFA/DMSO background map: Hit [1]: TRUE | Number of isomers bound [1]: 2 | Isomers modeled [1]: R,S | Average % competition [2, 9]: 71% | inhibition at 200 µM [2, 7]: 71%

OCC(Nc1ncnc2[nH]ccc12)C1CC1 (stereo not drawn) [AVI-3651]
PanDDA run, TFA/DMSO background map: 1-BDC [1]: 0.16 | PanDDA run, TFA/DMSO background map: Hit [1]: TRUE | Number of isomers bound [1]: 1 | Ki [2, 4]: 45 µM | Ligand efficiency (binding enery per heavy atom) [2, 4]: 0.38 | IC50 [2, 8]: 48 µM

OC(c1ccccc1)C1CCCN1c1ncnc2[nH]ccc12 (stereo not drawn) [AVI-3652]
PanDDA run, TFA/DMSO background map: 1-BDC [1]: 0.16 | PanDDA run, TFA/DMSO background map: Hit [1]: TRUE | Number of isomers bound [1]: 1 | inhibition at 200 µM [2, 6]: 35% | inhibition at 200 µM [2, 7]: 35%

CC1CCN(c2ncnc3[nH]ccc23)C1CO (stereo not drawn) [AVI-3655]
PanDDA run, TFA/DMSO background map: 1-BDC [1]: 0.18 | PanDDA run, TFA/DMSO background map: Hit [1]: TRUE | Number of isomers bound [1]: 1 | inhibition at 200 µM [2, 6]: 75% | inhibition at 200 µM [2, 7]: 75%

CO[C@@H]1C[C@H](CO)N(c2ncnc3[nH]ccc23)C1 [AVI-3656]
Number of isomers bound [1]: 1 | inhibition at 200 µM [2, 6]: 41% | inhibition at 200 µM [2, 7]: 41%

Cn1cc(CC(CO)Nc2ncnc3[nH]ccc23)cn1 (stereo not drawn) [AVI-3657]
PanDDA run, TFA/DMSO background map: 1-BDC [1]: 0.09 | PanDDA run, TFA/DMSO background map: Hit [1]: TRUE | Number of isomers bound [1]: 1 | Average % competition [2, 9]: 24% | inhibition at 200 µM [2, 7]: 24%

OCC(CC1OCCO1)Nc1ncnc2[nH]ccc12 (stereo not drawn) [AVI-3658]
Number of isomers bound [1]: 1 | Average % competition [2, 9]: 11% | inhibition at 200 µM [2, 7]: 11%

OCC(Nc1ncnc2[nH]ccc12)c1ccco1 (stereo not drawn) [AVI-3659]
PanDDA run, TFA/DMSO background map: 1-BDC [1]: 0.08 | PanDDA run, TFA/DMSO background map: Hit [1]: TRUE | Number of isomers bound [1]: 1 | Average % competition [2, 9]: 55% | inhibition at 200 µM [2, 7]: 55%

OCC(CC1CCCO1)Nc1ncnc2[nH]ccc12 (stereo not drawn) [AVI-3660]
PanDDA run, TFA/DMSO background map: 1-BDC [1]: 0.17 | PanDDA run, TFA/DMSO background map: Hit [1]: TRUE | Number of isomers bound [1]: 1 | Average % competition [2, 9]: 18% | inhibition at 200 µM [2, 7]: 18%

OC1CCN(c2ncnc3[nH]ccc23)C1 (stereo not drawn) [AVI-3661]
PanDDA run, TFA/DMSO background map: 1-BDC [1]: 0.12 | PanDDA run, TFA/DMSO background map: Hit [1]: TRUE | inhibition at 200 µM [2, 6]: 11% | inhibition at 200 µM [2, 7]: 11%

OCC(CC1CC1)Nc1ncnc2[nH]ccc12 (stereo not drawn) [AVI-3662]
PanDDA run, TFA/DMSO background map: 1-BDC [1]: 0.09 | PanDDA run, TFA/DMSO background map: Hit [1]: TRUE | Number of isomers bound [1]: 1 | Average % competition [2, 9]: 44% | inhibition at 200 µM [2, 7]: 44%

O[C@H]1CC[C@@H]2CCN(c3ncnc4[nH]ccc34)[C@@H]21 [AVI-3664]
PanDDA run, TFA/DMSO background map: 1-BDC [1]: 0.15 | PanDDA run, TFA/DMSO background map: Hit [1]: TRUE | Number of isomers bound [1]: 1 | Isomers modeled [1]: SRS | Ki [2, 4]: 26 µM | Ligand efficiency (binding enery per heavy atom) [2, 4]: 0.35 | IC50 [2, 8]: 28 µM
